According to ChEMBL document CHEMBL5465560, “Selectivity Literature for EUbOPEN Chemogenomic Library” (2024):

Tests used:
[1] = target: Histone-lysine N-methyltransferase, H3 lysine-79 specific (Homo sapiens, UniProt Q8TEK3); assay: Selectivity interaction (Western blot assay (DOT1L dependent H3K79 lysine dimethylation) ) EUB0000236b DOT1L
[2] = target: Protein arginine N-methyltransferase 6 (Homo sapiens, UniProt Q96LA8); assay: Selectivity interaction (Western blot assay (PRMT6 dependent H4R3 asymmetric arginine dimethylation)) EUB0000236b PRMT6
Chain of Protein arginine N-methyltransferase 6 (Q96LA8 whole entry): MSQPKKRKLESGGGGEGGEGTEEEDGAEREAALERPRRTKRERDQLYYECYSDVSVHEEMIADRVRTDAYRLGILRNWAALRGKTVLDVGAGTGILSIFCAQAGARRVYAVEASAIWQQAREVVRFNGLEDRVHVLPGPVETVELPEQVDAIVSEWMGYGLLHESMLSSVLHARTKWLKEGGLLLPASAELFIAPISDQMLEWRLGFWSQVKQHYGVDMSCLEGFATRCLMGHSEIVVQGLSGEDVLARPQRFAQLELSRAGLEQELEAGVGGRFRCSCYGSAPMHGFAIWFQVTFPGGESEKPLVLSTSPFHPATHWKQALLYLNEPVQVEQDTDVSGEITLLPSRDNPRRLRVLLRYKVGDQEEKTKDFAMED

[3] = target: T1, Protein arginine N-methyltransferase 9 (Homo sapiens, UniProt Q6P2P2); assay: Selectivity interaction (Western blot assay (PRMT9 dependent SAP145 […] arginine dimethylation)) EUB0000236b PRMT9
T1 sequence (Q6P2P2 whole entry): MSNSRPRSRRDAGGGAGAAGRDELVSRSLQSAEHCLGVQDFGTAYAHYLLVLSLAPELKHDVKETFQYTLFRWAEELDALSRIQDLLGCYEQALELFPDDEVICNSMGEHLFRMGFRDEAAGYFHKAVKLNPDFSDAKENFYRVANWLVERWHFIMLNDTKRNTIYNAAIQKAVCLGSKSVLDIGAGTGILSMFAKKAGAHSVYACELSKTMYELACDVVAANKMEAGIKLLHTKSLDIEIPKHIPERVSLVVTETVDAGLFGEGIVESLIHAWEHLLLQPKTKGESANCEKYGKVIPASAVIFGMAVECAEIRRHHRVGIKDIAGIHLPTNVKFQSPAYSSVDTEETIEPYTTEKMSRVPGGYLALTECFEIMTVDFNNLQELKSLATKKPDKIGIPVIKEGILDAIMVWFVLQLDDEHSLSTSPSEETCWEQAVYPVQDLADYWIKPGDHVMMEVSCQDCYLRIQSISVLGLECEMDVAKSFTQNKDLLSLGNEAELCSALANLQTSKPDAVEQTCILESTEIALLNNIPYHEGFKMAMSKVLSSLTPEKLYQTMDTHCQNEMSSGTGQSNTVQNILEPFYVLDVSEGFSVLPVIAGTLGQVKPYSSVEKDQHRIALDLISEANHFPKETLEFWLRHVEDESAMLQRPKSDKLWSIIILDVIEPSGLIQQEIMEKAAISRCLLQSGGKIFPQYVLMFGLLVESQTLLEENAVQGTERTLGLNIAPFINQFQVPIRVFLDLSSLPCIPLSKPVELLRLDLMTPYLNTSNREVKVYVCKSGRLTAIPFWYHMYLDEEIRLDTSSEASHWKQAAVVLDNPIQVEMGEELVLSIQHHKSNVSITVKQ

[4] = target: Protein arginine N-methyltransferase 1 (Homo sapiens, UniProt Q99873); assay: Selectivity interaction (Western blot assay (PRMT1 dependent H4R3 asymmetric arginine dimethylation)) EUB0000236b PRMT1
Chain of Protein arginine N-methyltransferase 1 (Q99873 whole entry): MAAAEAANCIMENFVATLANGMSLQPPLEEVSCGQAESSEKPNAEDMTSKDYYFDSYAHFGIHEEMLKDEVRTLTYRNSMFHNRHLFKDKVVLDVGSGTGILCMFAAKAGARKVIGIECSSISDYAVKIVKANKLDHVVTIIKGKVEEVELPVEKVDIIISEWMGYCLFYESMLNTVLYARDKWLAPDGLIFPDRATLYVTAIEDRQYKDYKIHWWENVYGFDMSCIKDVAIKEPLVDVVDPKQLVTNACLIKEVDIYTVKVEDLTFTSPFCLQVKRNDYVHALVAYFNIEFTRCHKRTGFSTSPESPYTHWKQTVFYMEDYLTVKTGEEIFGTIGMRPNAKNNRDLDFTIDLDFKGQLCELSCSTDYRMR

[5] = target: Protein arginine N-methyltransferase 5 (Homo sapiens, UniProt O14744); assay: Selectivity interaction (Western blot assay (PRMT5 dependent SmB symmetric arginine dimethylation)) EUB0000236b PRMT5
Chain of Protein arginine N-methyltransferase 5 (O14744 whole entry): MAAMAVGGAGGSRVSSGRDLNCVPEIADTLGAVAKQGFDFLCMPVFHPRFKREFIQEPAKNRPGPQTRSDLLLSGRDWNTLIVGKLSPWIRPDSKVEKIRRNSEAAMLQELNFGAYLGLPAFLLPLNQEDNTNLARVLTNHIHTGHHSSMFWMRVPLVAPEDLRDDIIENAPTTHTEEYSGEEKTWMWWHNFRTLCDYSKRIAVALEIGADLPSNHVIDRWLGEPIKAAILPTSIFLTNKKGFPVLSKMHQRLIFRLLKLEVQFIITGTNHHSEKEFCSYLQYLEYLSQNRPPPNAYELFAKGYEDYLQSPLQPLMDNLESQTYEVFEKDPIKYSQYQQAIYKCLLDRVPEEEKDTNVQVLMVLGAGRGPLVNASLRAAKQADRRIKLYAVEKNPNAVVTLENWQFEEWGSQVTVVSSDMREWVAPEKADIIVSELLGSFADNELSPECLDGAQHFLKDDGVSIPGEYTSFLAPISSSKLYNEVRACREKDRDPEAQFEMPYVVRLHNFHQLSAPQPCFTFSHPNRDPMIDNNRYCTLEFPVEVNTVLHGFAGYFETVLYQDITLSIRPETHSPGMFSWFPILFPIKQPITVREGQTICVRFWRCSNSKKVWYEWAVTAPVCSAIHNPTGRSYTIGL

[6] = target: T2, Histone-arginine methyltransferase CARM1 (Homo sapiens, UniProt Q86X55); assay: Selectivity interaction (Western blot assay (PRMT4 dependent BAF155 asymmetric arginine dimethylation)) EUB0000236b CARM1
T2 sequence (Q86X55 whole entry): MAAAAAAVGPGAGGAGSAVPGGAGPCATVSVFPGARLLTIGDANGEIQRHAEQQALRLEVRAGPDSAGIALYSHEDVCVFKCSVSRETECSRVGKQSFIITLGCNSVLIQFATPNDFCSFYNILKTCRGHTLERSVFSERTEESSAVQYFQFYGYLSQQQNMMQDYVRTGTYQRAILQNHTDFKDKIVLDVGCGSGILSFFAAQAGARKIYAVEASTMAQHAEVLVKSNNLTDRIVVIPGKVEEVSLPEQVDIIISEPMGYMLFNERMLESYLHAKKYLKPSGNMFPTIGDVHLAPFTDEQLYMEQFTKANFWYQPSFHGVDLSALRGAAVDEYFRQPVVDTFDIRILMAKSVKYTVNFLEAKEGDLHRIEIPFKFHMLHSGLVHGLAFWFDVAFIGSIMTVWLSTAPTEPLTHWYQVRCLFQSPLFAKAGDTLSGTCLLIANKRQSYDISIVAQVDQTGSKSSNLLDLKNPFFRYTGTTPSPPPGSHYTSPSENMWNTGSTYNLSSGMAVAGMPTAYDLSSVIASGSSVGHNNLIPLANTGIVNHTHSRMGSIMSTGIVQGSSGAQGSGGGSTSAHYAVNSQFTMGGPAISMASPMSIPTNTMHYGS

Measured: EC50

Chain of Histone-lysine N-methyltransferase, H3 lysine-79 specific (Q8TEK3 whole entry): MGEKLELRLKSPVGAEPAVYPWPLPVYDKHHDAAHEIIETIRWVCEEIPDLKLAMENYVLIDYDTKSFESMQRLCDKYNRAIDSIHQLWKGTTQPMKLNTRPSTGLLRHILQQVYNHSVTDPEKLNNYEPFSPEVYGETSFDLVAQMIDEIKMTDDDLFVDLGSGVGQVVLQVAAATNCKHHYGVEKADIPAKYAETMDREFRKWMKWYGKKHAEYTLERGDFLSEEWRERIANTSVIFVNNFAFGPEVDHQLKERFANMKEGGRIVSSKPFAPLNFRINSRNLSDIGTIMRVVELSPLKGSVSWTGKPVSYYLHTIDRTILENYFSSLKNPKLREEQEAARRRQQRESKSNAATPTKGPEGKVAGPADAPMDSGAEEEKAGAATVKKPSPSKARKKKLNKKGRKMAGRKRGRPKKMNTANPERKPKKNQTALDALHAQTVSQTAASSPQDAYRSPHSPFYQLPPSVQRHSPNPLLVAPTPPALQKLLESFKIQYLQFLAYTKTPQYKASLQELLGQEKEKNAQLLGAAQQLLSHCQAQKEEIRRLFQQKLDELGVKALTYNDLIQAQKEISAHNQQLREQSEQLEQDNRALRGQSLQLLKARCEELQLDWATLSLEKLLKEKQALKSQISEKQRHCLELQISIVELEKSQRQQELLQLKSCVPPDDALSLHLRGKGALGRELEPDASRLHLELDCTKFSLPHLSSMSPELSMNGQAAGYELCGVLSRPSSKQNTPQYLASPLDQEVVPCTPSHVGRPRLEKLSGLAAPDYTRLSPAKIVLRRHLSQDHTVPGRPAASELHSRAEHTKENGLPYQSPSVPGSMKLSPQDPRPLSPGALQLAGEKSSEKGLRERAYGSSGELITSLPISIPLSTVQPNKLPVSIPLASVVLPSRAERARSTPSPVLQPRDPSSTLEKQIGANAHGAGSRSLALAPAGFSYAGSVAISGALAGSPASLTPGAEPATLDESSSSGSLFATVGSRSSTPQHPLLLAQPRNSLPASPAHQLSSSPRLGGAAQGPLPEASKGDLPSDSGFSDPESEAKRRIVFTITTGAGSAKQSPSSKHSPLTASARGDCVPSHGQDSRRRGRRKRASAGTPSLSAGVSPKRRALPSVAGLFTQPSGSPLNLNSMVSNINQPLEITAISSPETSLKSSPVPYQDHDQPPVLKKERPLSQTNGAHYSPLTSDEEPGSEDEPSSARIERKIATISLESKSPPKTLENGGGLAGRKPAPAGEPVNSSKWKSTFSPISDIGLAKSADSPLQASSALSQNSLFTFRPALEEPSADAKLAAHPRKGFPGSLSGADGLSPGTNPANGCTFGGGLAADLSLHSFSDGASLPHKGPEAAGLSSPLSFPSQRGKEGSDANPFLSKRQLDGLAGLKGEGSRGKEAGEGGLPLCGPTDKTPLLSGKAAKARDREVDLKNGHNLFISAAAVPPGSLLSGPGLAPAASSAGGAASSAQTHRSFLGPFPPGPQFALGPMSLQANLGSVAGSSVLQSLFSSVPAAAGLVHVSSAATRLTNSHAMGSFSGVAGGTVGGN

CC1=C(C)C(=O)C(C(C)(C)CC(=O)N(CCCCSC[C@H]2O[C@@H](n3cnc4c(N)ncnc43)[C@@H]3OC(C)(C)O[C@@H]32)Cc2cccc(-c3ccc(Cl)cc3)c2)=C(C)C1=O
> 5 nM: all assays above
